Assay results reported in patent US6087336A, “Peptide derivatives useful in treating autoimmune diseases” (Zeneca Limited, priority 1996, dated 2000).

Assays:
[1] = format: physicochemical
Procedure: Degradation of Dettide on in vitro release from an extruded polymer depot
A solution of McIlvaine's citric acid-phosphate buffer solution at pH 7.6 containing 0.02% sodium azide, is filtered through a 0.22 μfilter and stored at 4° C. Approximately 10 mg of extruded polymer depot containing peptide is placed in two small vials and 2 ml of the buffer solution added. The vials are then capped and stored in a water bath at 37° C. for a month. At suitable time points over a month, three 0.6ml aliquots of release medium are removed from each vial and either analysed by HPLC or stored frozen in an HPLC vial at -18° C. prior to analysis by HPLC. 1.8 ml of the buffer solution is added to each vial containing the depot to replace the release medium that has been removed at each time point.
The average amount of intact peptide in the release medium at each time point is determined by HPLC using duplicate sample injections by comparing the area of the peptide peak in the release media with the area of the peptide peak from standard buffer solutions of peptide at known concentrations. The approximate average amount of peptide degradation products in the release media at each time point is determined by HPLC by comparing the area of additional new peaks in the release media with the area of the peptide peak from standard buffer solutions of peptide at known concentrations and assuming the extinction coefficient has not changed. The average cumulative in vitro release profile of intact peptide and total peptide (intact peptide and peptide degradation products) is determined from the amounts of intact peptide and peptide degradation products in the release medium at each time point. Preferred peptides of the present invention show minimal degradation on in vitro release and thus show total peptide degradation products of less than 10% and preferably less than 5% of total peptide after a month of in vitro release into Mcllvaine's buffer solution at pH 7.6 at 37° C.

[2] = format: physicochemical; remark: listed apart in the source
Procedure: Typical procedures for measuring the level of degradation of a peptide of the present invention are as follows:
Prenaration of extruded polymer depot formulation of peptide
About 20 mg of peptide is accurately weighed and sufficient polymer (50/50% molar poly(D,L-lactic acid/glycolic acid) copolymer of approximate weight average molecular weight 20kD and approximate polydispersity of 1.7 as determined by size exclusion chromatography relative to polystyrene standards) added to produce an approximate 20% w/w mixture. This is dissolved in […] glacial acetic acid to produce an approximate 10% w/v solution. The solution is freeze dried and the resulting freeze dried product is stored under vacii, prior to use.
About 100 mg of freeze dried material is loaded into the barrel of a small laboratory extruder and the plunger pushed down to consolidate the sample. The extruder is heated to between 90 and 95° C. and held at this temperature for 10 minutes before the freeze dried material is extruded under presure to give a cylindrical extrudate of approximately 1 mm in diameter.
Analysis of peptide content of extruded polymer depot formulation of peptide
Two approximate 5 mm lengths of extruded polymer depot containing peptide are accurately weogjed amd eacj dosspved 1 ml of anhydride-free glacial acetic acid in separate 25 ml bolumertic flasks. After about 1.5 hours the volume of each is made up to 25 ml with distilled water, causing the polymer to precipitate. The solids are filtered off using a 0.5 μm Millex PTFE filter and the solutions, A, collected. […]
Each standard is filtered through a 5 μm Millex PTFE filter and an aliquot of filtrate, together with aliquots of the solutions A, analysed by HPLC using duplicate sample injections. The peptide content of the extruded polymer depot formulation of peptide is calculated from the concentration of peptide in solutions A, which is determined by comparing the area of the peptide peak in solutions A with the area of the peptide peak from the standard solutions.

[3] = test system: BALB/C mice; assay: Test C: peptide stimulated DTH (delayed type hypersensitivity) in BALB/C mice; format: in vivo; conditions: DTH to ovalbumin, 3-day osmotic mini-pumps
Procedure: Test C: Peptide stimulated DTH (delayed type hypersensitivity) in BALB/C mice. […] Balbic female mice (18-20g), 5 per group, were immunised sub-cutaneously on the flank with 0.1 ml of an emulsion of ovalbumin (Sigma) (2mg/ml in saline) mixed 1:1 (v/v) with complete Freunds adjurant (Sigma). Seven days later footpad thickness was detemined using a dual caliper micrometer followed by a challenge in one hind footpad with a 30 μl sub-plantar injection of 1% heat-aggregated ovalbumin protein in saline. Twenty-four hours after antigen challenge, footpads were measured and the DTH response calculated as the percentage increase in footpad thickness in the injected footpad compared to contralateral control. Inhibitors were adminstered by 3-day osmotic mini-pumps (Alzet) implanted 24 hours prior to antigen challenge at doses ranging from 10 mg/kg/day to 0.1 μg/kg/day. The degree of inhibition was calculated by substracting the value for swelling of inhibitor treated footpads from that of the vehicle dosed controls, dividing by the control value and multiplying by 100%.

Row | Substance | degradation on release from depot formulation [1] | loss due to degradation on extrusion [2] | dose at which active in Test C [3]
1 | Phv-Ala-Arg-Ala-IIb-Ala-Arg-Ala-Papa-NH2 [Example 23] | minimal degradation on release | minimal loss due to degradation on extrusion | < 0.1 mg/kg/day
2 | Phv-Arg-Ala-Ala-Ala-Val-IIb-Ala-Pip-NH2 [Example 5] | minimal degradation on release | minimal loss due to degradation on extrusion | < 0.1 mg/kg/day
3 | Phv-Gap(Me)4 -Ala-Ala-Ala-Thr-IIb-Ala-Papa-NH2 [Example 16] | minimal degradation on release | minimal loss due to degradation on extrusion | < 0.1 mg/kg/day
